The numbers were not newly measured in EP0893690B1, “Detection of mycotoxins by flow-through membrane-based enzyme immunoassay” (priority 1997, dated 1999), which cites them from elsewhere.

Data set [1] has as its system monoclonal anti-OA antibody (IgG1 with kappa light chains). Particulars: relative to OA; called weak.
The target in data set [2] is monoclonal anti-OA antibody (IgG1 with kappa light chains). To be noted: association constant of the anti-OA antibody for its antigen OA; read-out: affinity constant (converted).

In the case of `C[C@@H]1Cc2ccc(C(=O)N[C@@H](Cc3ccccc3)C(=O)O)c(O)c2C(=O)O1` [ochratoxin B], the cross-reaction in data set [1] is 9.3%.

Turning to `C[C@@H]1Cc2c(Cl)cc(C(=O)N[C@@H](Cc3ccccc3)C(=O)O)c(O)c2C(=O)O1` [OA, ochratoxin A], the Kd in data set [2] was 0.128 nM.
